Reference: US8163771B2, “11 β-HSD1 modulators” (Exelixis, Inc., priority 2008, dated 2012)

What follows are compounds tested against T1, recombinant human 11 β-HSD1 (Homo sapiens, UniProt P28845) (assay: 11 β-HSD1 SPA Assay (Scintillation Proximity Assay)).
T1 construct: made in house; host or cells: E. coli
T1 sequence (P28845 whole entry): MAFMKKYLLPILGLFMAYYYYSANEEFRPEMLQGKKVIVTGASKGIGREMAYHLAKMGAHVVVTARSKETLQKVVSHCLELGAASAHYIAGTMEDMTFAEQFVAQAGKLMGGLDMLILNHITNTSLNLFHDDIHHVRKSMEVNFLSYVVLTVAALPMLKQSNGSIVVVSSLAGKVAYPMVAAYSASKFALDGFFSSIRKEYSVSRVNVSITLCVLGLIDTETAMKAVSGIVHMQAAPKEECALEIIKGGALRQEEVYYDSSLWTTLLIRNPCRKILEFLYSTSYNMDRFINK
Format: biochemical
Summary of the method: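 Scintillation proximity read-out of cortisol formed from 40 nM [3H]cortisone by purified recombinant human enzyme (30-100 nM, E. coli) with 1 mM NADPH, pH7.4, 2 hours at room temperature; beads with cortisol antibody and glycyrrhetinic acid stop the reaction, read next day. IC50 derived from inhibition normalised to background and maximal wells.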
Work on `CC(C)(Oc1ccc(F)cc1Cl)C(=O)N[C@H]1C[C@H]2CC[C@@H](C1)N2c1ccc(NS(C)(=O)=O)cc1` [Example 315, 2-[(2-chloro-4-fluorophenyl)oxy]-2-methyl-N-(8-{4-[(methylsulfonyl)amino]phenyl}-8-azabicyclo[3.2.1]oct-3-endo-yl)propanamide] yielded an IC50 of under 200 nM. `C[C@H](CO)NC(=O)c1ccc(N2C3CCC2CC(NC(=O)C(C)(C)Oc2ccc(Cl)cc2Cl)C3)nc1` (stereo partly drawn) [Example 398, 6-(3-endo-{[2-(2,4-dichlorophenoxy)-2-methylpropanoyl]amino}-8-azabicyclo[3.2.1]oct-8-yl)-N-[(2R)-1-hydroxypropan-2-yl]pyridine-3-carboxamide] showed an IC50 of under 200 nM. Compound `CC(C)NC(=O)c1ccc(N2[C@@H]3CC[C@H]2C[C@@H](NC(=O)C(C)(C)Oc2ccc(Cl)c(F)c2)C3)nc1` [Example 84, 6-[3-endo-({2-[(4-chloro-3-fluorophenyl)oxy]-2-methylpropanoyl}amino)-8-azabicyclo[3.2.1]oct-8-yl]-N-(1-methylethyl)pyridine-3-carboxamide] has an IC50 of under 200 nM. `CC(C)(Oc1ccc(Cl)cc1Cl)C(=O)NC1CC2CCC(C1)N2c1ccc(C(=O)NC(CO)C(F)(F)F)cn1` (stereo not drawn) [Example 463, 6-(3-endo-{[2-(2,4-dichlorophenoxy)-2-methylpropanoyl]amino}-8-azabicyclo[3.2.1]oct-8-yl)-N-(1,1,1-trifluoro-3-hydroxypropan-2-yl)pyridine-3-carboxamide] was tested, and the IC50 was under 200 nM. `CC(C)(Oc1c(Cl)cc(F)cc1Cl)C(=O)N[C@H]1C[C@H]2CC[C@@H](C1)N2c1ccc(S(N)(=O)=O)cn1` [Example 238, N-{8-[5-(aminosulfonyl)pyridin-2-yl]-8-azabicyclo[3.2.1]oct-3-endo-yl}-2-[(2,6-dichloro-4-fluorophenyl)oxy]-2-methylpropanamide] was tested, and the IC50 was under 200 nM. In the case of `CC(C)(Oc1ccc(F)c(F)c1)C(=O)N[C@H]1C[C@H]2CC[C@@H](C1)N2c1ccc(S(C)(=O)=O)cc1` [Example 209, 2-[(3,4-difluorophenyl)oxy]-2-methyl-N-{8-[4-(methylsulfonyl)phenyl]-8-azabicyclo[3.2.1]oct-3-endo-yl}propanamide], the IC50 is reported as under 2000 nM. Compound `CC(C)(Oc1cc(F)c(Cl)cc1Cl)C(=O)N[C@H]1C[C@H]2CC[C@@H](C1)N2c1ccc(S(C)(=O)=O)cc1` [Example 237, 2-[(2,4-dichloro-5-fluorophenyl)oxy]-2-methyl-N-{8-[4-(methylsulfonyl)phenyl]-8-azabicyclo[3.2.1]oct-3-endo-yl}propanamide] has an IC50 of under 200 nM. For `CC(C)(Oc1ccc(C(C)(C)O)cc1Cl)C(=O)N[C@H]1C[C@H]2CC[C@@H](C1)N2c1ccc(C(=O)NCC(F)(F)F)cn1` [Example 391, 6-[3-endo-({2-[2-chloro-4-(2-hydroxypropan-2-yl)phenoxy]-2-methylpropanoyl}amino)-8-azabicyclo[3.2.1]oct-8-yl]-N-(2,2,2-trifluoroethyl)pyridine-3-carboxamide], the IC50 was under 200 nM. With `CC(C)(Oc1ccc(Cl)c(Cl)c1)C(=O)N[C@H]1C[C@H]2CC[C@@H](C1)N2c1ccc(S(N)(=O)=O)cn1` [Example 205, N-{8-[5-(aminosulfonyl)pyridin-2-yl]-8-azabicyclo[3.2.1]oct-3-endo-yl}-2-[(3,4-dichlorophenyl)oxy]-2-methylpropanamide] the IC50 was under 200 nM. Compound `CC(C)(Oc1ccc(C(F)(F)F)cn1)C(=O)N[C@H]1C[C@H]2CC[C@@H](C1)N2c1ccc(S(C)(=O)=O)cc1` [Example 196, 2-methyl-N-{8-[4-(methylsulfonyl)phenyl]-8-azabicyclo[3.2.1]oct-3-endo-yl}-2-{[5-(trifluoromethyl)pyridin-2-yl]oxy}propanamide] has an IC50 of under 2000 nM. Work on `CC(C)(Oc1ccc(F)cc1C(F)(F)F)C(=O)N[C@H]1C[C@H]2CC[C@@H](C1)N2c1ccc(NS(C)(=O)=O)cc1` [Example 283, 2-{[4-fluoro-2-(trifluoromethyl)phenyl]oxy}-2-methyl-N-(8-{4-[(methylsulfonyl)amino]phenyl}-8-azabicyclo[3.2.1]oct-3-endo-yl)propanamide] yielded an IC50 of under 200 nM. With `CC(C)(Oc1ccc(Cl)cc1Cl)C(=O)NC1CC2CCC(C1)N2c1ccc(C(=O)NCC(N2CCOCC2)C(F)(F)F)cn1` (stereo not drawn) [Example 470, 6-(3-endo-{[2-(2,4-dichlorophenoxy)-2-methylpropanoyl]amino}-8-azabicyclo[3.2.1]oct-8-yl)-N-[3,3,3-trifluoro-2-(morpholin-4-yl)propyl]pyridine-3-carboxamide] the IC50 was under 200 nM. `CC(C)(Oc1ccc(Cl)cc1Cl)C(=O)N[C@H]1C[C@H]2CC[C@@H](C1)N2c1ccc(C(=O)NCCO)cn1` [Example 367, 6-(3-endo-{[2-(2,4-dichlorophenoxy)-2-methylpropanoyl]amino}-8-azabicyclo[3.2.1]oct-8-yl)-N-(2-hydroxyethyl)pyridine-3-carboxamide] was tested, and the IC50 was under 200 nM. `O=C(NC1CC1)c1ccc(N2[C@@H]3CC[C@H]2C[C@@H](NC(=O)C2(Oc4ccccc4)CC2)C3)nc1` [Example 45, N-cyclopropyl-6-[3-endo-({[1-(phenyloxy)cyclopropyl]carbonyl}amino)-8-azabicyclo[3.2.1]oct-8-yl]pyridine-3-carboxamide] was tested, and the IC50 was under 200 nM. In the case of `CC(C)(Oc1c(Cl)cc(F)cc1C(F)(F)F)C(=O)N[C@H]1C[C@H]2CC[C@@H](C1)N2c1ccc(S(N)(=O)=O)cn1` [Example 251, N-{8-[5-(aminosulfonyl)pyridin-2-yl]-8-azabicyclo[3.2.1]oct-3-endo-yl}-2-{[2-chloro-4-fluoro-6-(trifluoromethyl)phenyl]oxy}-2-methylpropanamide], the IC50 is reported as under 200 nM. For `CC(C)(Oc1cc(OCCO)c(Cl)cc1Cl)C(=O)N[C@H]1C[C@H]2CC[C@@H](C1)N2c1ccc(C(=O)NCC(F)(F)F)cn1` [Example 361, 6-[3-endo-({2-[2,4-dichloro-5-(2-hydroxyethoxy)phenoxy]-2-methylpropanoyl}amino)-8-azabicyclo[3.2.1]oct-8-yl]-N-(2,2,2-trifluoroethyl)pyridine-3-carboxamide], the IC50 was under 200 nM. Work on `C[C@@H](CO)NC(=O)c1ccc(N2C3CCC2CC(NC(=O)C(C)(C)Oc2ccc(Cl)cc2Cl)C3)nc1` (stereo partly drawn) [Example 397, 6-(3-endo-{[2-(2,4-dichlorophenoxy)-2-methylpropanoyl]amino}-8-azabicyclo[3.2.1]oct-8-yl)-N-[(2S)-1-hydroxypropan-2-yl]pyridine-3-carboxamide] yielded an IC50 of under 200 nM. For `CC(C)(Oc1ccc(Cl)cc1Cl)C(=O)N[C@H]1C[C@H]2CC[C@@H](C1)N2C(=O)c1cccc(C(N)=O)c1` [Example 327, 3-{[3-endo-({2-[(2,4-dichlorophenyl)oxy]-2-methylpropanoyl)amino)-8-azabicyclo[3.2.1]oct-8-yl]carbonyl}benzamide], the IC50 was under 2000 nM. In the case of `CC(C)(Oc1ccc(Cl)cc1C(F)F)C(=O)NC1CC2CCC(C1)N2c1ccc(C(=O)NCC(O)C(F)(F)F)cn1` (stereo not drawn) [Example 449, 6-[3-endo-({2-[4-chloro-2-(difluoromethyl)phenoxy]-2-methylpropanoyl}amino)-8-azabicyclo[3.2.1]oct-8-yl]-N-(3,3,3-trifluoro-2-hydroxypropyl)pyridine-3-carboxamide], the IC50 is reported as under 200 nM. In the case of `CC(C)(Oc1cc(F)ccc1C(F)(F)F)C(=O)N[C@H]1C[C@H]2CC[C@@H](C1)N2c1ccc(C(=O)NCC(F)(F)F)cn1` [Example 319, 6-{3-endo-[(2-{[5-fluoro-2-(trifluoromethyl)phenyl]oxy}-2-methylpropanoyl)amino]-8-azabicyclo[3.2.1]oct-8-yl}-N-(2,2,2-trifluoroethyl)pyridine-3-carboxamide], the IC50 is reported as under 200 nM. Compound `Cc1nc(N2[C@@H]3CC[C@H]2C[C@@H](NC(=O)C(C)(C)Oc2ccc(Cl)cc2)C3)ccc1C(=O)NC1CC1` [Example 51, 6-[3-endo-({2-[(4-chlorophenyl)oxy]-2-methylpropanoyl}amino)-8-azabicyclo[3.2.1]oct-8-yl]-N-cyclopropyl-2-methylpyridine-3-carboxamide] has an IC50 of under 2000 nM. Work on `CC(C)(C(=O)N[C@H]1C[C@H]2CC[C@@H](C1)N2c1ccc(C(=O)NC2CC2)cn1)c1ccccc1` [Example 21, N-cyclopropyl-6-{3-endo-[(2-methyl-2-phenylpropanoyl)amino]-8-azabicyclo[3.2.1]oct-8-yl}pyridine-3-carboxamide] yielded an IC50 of under 200 nM. Compound `CC(C)(Sc1ccc(Cl)cc1Cl)C(=O)N[C@H]1C[C@H]2CC[C@@H](C1)N2c1ccc(S(C)(=O)=O)cn1` [Example 328, 2-[(2,4-dichlorophenyl)thio]-2-methyl-N-{8-[5-(methylsulfonyl)pyridin-2-yl]-8-azabicyclo[3.2.1]oct-3-endo-yl}propanamide] has an IC50 of under 200 nM. `CC(C)(Oc1ccc(Cl)c(F)c1)C(=O)N[C@H]1C[C@H]2CC[C@@H](C1)N2c1ccc(C(=O)NC2CC2)cn1` [Example 43, 6-[3-endo-({2-[(4-chloro-3-fluorophenyl)oxy]-2-methylpropanoyl}amino)-8-azabicyclo[3.2.1]oct-8-yl]-N-cyclopropylpyridine-3-carboxamide] showed an IC50 of under 200 nM. `CC(C)(Oc1ccc(Cl)cc1Cl)C(=O)N[C@H]1C[C@H]2CC[C@@H](C1)N2c1ncc(C(=O)NC2CC2)cc1Cl` [Example 86, 5-chloro-N-cyclopropyl-6-[3-endo-({2-[(2,4-dichlorophenyl)oxy]-2-methylpropanoyl}amino)-8-azabicyclo[3.2.1]oct-8-yl]pyridine-3-carboxamide] was tested, and the IC50 was under 200 nM. For `CC(C)(Oc1ccc(Cl)cc1Cl)C(=O)N[C@H]1C[C@H]2CC[C@@H](C1)N2c1ccc(C(=O)NC2CCS(=O)(=O)CC2)cn1` [Example 379, 6-(3-endo-{[2-(2,4-dichlorophenoxy)-2-methylpropanoyl]amino}-8-azabicyclo[3.2.1]oct-8-yl)-N-(1,1-dioxidotetrahydro-2h-thiopyran-4-yl)pyridine-3-carboxamide], the IC50 was under 200 nM. `CC(C)(Oc1ccccc1S(C)(=O)=O)C(=O)N[C@H]1C[C@H]2CC[C@@H](C1)N2c1ccc(C(N)=O)cn1` [Example 326, 6-{3-endo-[(2-methyl-2-{[2-(methylsulfonyl)phenyl]oxy}propanoyl)amino]-8-azabicyclo[3.2.1]oct-8-yl}pyridine-3-carboxamide] was tested, and the IC50 was under 200 nM.
